{
  "source": "patent US9226982B2",
  "about": "“Gall bladder imaging agent and its preparation method” (INSTITUTE OF NUCLEAR ENERGY RESEARCH ATOMIC ENERGY COUNCIL, …, priority 2012, dated 2016)",
  "key": {"[1]": {"biological_target": "T1, ASGPR (Mus musculus, UniProt P24721+P34927)", "T1 construct": "host or cells: mouse liver cells (hepatocytes) cultured on 24-well plates", "T1 sequence (P34927 1-284)": "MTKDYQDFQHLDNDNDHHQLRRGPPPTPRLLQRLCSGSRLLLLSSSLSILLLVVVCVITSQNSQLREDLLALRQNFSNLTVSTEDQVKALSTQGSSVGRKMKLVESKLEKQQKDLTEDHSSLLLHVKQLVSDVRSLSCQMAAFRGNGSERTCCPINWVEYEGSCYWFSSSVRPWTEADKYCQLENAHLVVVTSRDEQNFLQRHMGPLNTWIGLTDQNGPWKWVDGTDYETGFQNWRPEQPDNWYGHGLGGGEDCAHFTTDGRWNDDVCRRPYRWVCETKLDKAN", "T1 sequence (P24721 1-301)": "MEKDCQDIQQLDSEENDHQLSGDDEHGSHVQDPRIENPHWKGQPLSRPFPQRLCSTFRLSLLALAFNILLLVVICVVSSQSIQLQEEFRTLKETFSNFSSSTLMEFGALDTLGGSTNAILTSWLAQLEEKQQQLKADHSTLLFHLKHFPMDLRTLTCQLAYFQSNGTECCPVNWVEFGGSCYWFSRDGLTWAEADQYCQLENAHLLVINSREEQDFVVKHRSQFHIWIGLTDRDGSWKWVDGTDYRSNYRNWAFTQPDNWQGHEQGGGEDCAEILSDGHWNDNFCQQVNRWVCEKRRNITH", "test": "Binding strength between carbohydrate chain peptide and mice liver cell (competition with Eu-ASOR, time-resolved fluorescence)", "description": "The binding strength between carbohydrate chain peptide and a mice liver cell uses Eu-asialo-orosomucoid (Eu-ASOR) as a reference substance and compares whether carbohydrate chain peptides such as DCM-Lys(ah-GalNAc)3, […] larger binding capacity to a mice liver cell than Eu-ASOR. IC50 (50% inhibitory concentration) represents the binding capacity. Smaller IC50 represents larger binding capacity. Mice liver cells are purchased from Lonza biotechnology company in State of Maryland, which are placed and cultivated on a 24-well plate in advance. Reaction takes place at each well. […] Perform oscillating culture for 1 hours. Use an ammonium-chloride-containing liver cell base culture medium to wash away substances that are not bonded to liver cells. Perform time-resolved fluorescence analysis, namely, add an enhancer (15 μM of β-naphthoyl trifluoroacetone, 50 μM of tri-n-octyl-phosphine oxide, 0.1M of potassium hydrogen phthalate, and 0.1% of Triton X-100 in 0.1M of acetic acid, pH of 3.2). The enhancer forms an Eu chelate with Eu^3+ and emits light of 615 nm when energized by 340 nm. The logarithmic value of the concentration of carbohydrate chain peptide is taken as X-axis, and the emitted fluorescence value is taken as the Y-axis. […] However, the binding between DCM-Lys(Gah-GalNAc)3 and ASGPR is 10 times as large as the binding strength of YEE and YDD."}, "[2]": {"settings": "in vivo", "description": "Tyrosine-glutamyl-glutamic acid (YEE) and tyrosine-aspartyl-aspartic acid (YDD) are first proposed by Lee et al. (1983). Tyrosine-glutamyl-glutamyl-glutamic acid (YEEE) is an improved invention by Chen et al. (ROC Patent TW1240002, 2000). The binding force between double-chain galactose amino peptide proposed by Lee et al. in 1983 and a liver cell is 1000 times as large as that of single-chain galactose amino peptide. The binding force between triple-chain galactose amino peptide and a liver cell is 10^6 times as large as that of sing-chain galactose amino peptide. Our laboratory has synthesized DTPA-hexa-lactose with a single lysine derivative earlier, which has very high specific radioactivity with the In-111 label and has a very desirable effect of accumulation at the liver in animal experiments. However, our animal experiments have shown that In-111-DTPA-hexa-lactose stays at the liver very stably for at least half an hour, and it is actually not easy to observe changes of absorption of the gall bladder in the entire imaging process. Therefore, In-111-DTPA-hexa-lactose is suitable for use in remaining liver function test or measurement of remaining liver after liver resection, but is not very suitable for use as a gall bladder imaging agent."}},
  "data": [
    {"smiles": "NCCCCCC(=O)N[C@@H](CC(=O)NCCCC[C@@H](C(=O)NCCCCCCO[C@@H]1O[C@H](CO)[C@@H](O[C@@H]2O[C@H](CO)[C@H](O)[C@H](O)[C@H]2O)[C@H](O)[C@H]1O)N(CC(=O)NCCCCCCO[C@@H]1O[C@H](CO)[C@@H](O[C@@H]2O[C@H](CO)[C@H](O)[C@H](O)[C@H]2O)[C@H](O)[C@H]1O)CC(=O)NCCCCCCO[C@@H]1O[C@H](CO)[C@@H](O[C@@H]2O[C@H](CO)[C@H](O)[C@H](O)[C@H]2O)[C@H](O)[C@H]1O)C(=O)NCCCC[C@@H](C(=O)NCCCCCCO[C@@H]1O[C@H](CO)[C@@H](O[C@@H]2O[C@H](CO)[C@H](O)[C@H](O)[C@H]2O)[C@H](O)[C@H]1O)N(CC(=O)NCCCCCCO[C@@H]1O[C@H](CO)[C@@H](O[C@@H]2O[C@H](CO)[C@H](O)[C@H](O)[C@H]2O)[C@H](O)[C@H]1O)CC(=O)NCCCCCCO[C@@H]1O[C@H](CO)[C@@H](O[C@@H]2O[C@H](CO)[C@H](O)[C@H](O)[C@H]2O)[C@H](O)[C@H]1O", "note": "[AHA-Asp[DCM-Lys(ahLac)3]2]", "values": [
      {"measurement": "binding strength to ASGPR compared with YEE and YDD (in words)", "setting": "[1]; compared with YEE and YDD", "result": "same binding strength as YEE and YDD"}
    ]},
    {"smiles": "CC(=O)N[C@H]1[C@H](OCCCCCCNC(=O)CNC(=O)CN(CC(=O)NCC(=O)NCCCCCCO[C@@H]2O[C@H](CO)[C@H](O)[C@H](O)[C@H]2NC(C)=O)[C@@H](CCCCN)C(=O)NCC(=O)NCCCCCCO[C@@H]2O[C@H](CO)[C@H](O)[C@H](O)[C@H]2NC(C)=O)O[C@H](CO)[C@H](O)[C@@H]1O", "note": "[DCM-Lys(GahGalNAc)3]", "values": [
      {"measurement": "binding strength to ASGPR relative to YEE and YDD", "setting": "[1]; compared with YEE and YDD", "result": 10, "unit": "times"},
      {"measurement": "IC50", "setting": "[1]; mice liver cells, 10 nM Eu-ASOR as reference substance, 1 hour culture", "result": 1, "unit": "nM"}
    ]},
    {"smiles": "O=C(O)CN(CCN(CC(=O)O)CC(=O)O)CCN(CC(=O)O)CC(=O)NCCCCCC(=O)N[C@@H](CC(=O)NCCCC[C@@H](C(=O)NCCCCCCO[C@@H]1O[C@H](CO)[C@@H](O[C@@H]2O[C@H](CO)[C@H](O)[C@H](O)[C@H]2O)[C@H](O)[C@H]1O)N(CC(=O)NCCCCCCO[C@@H]1O[C@H](CO)[C@@H](O[C@@H]2O[C@H](CO)[C@H](O)[C@H](O)[C@H]2O)[C@H](O)[C@H]1O)CC(=O)NCCCCCCO[C@@H]1O[C@H](CO)[C@@H](O[C@@H]2O[C@H](CO)[C@H](O)[C@H](O)[C@H]2O)[C@H](O)[C@H]1O)C(=O)NCCCC[C@@H](C(=O)NCCCCCCO[C@@H]1O[C@H](CO)[C@@H](O[C@@H]2O[C@H](CO)[C@H](O)[C@H](O)[C@H]2O)[C@H](O)[C@H]1O)N(CC(=O)NCCCCCCO[C@@H]1O[C@H](CO)[C@@H](O[C@@H]2O[C@H](CO)[C@H](O)[C@H](O)[C@H]2O)[C@H](O)[C@H]1O)CC(=O)NCCCCCCO[C@@H]1O[C@H](CO)[C@@H](O[C@@H]2O[C@H](CO)[C@H](O)[C@H](O)[C@H]2O)[C@H](O)[C@H]1O", "note": "[In-111-DTPA-hexa-lactose, metal not drawn]", "values": [
      {"measurement": "time it stays at the liver very stably", "setting": "[2]", "result": "at least half an hour"}
    ]}
  ]
}
